Measured values published in patent US8455665B2, “3-phenoxymethylpyrrolidine compounds” (Theravance, Inc., priority 2009, dated 2013).

How the values were obtained:
Set-up in all cases: expressed in transfected cells; host or cells: HEK-293
NET [1] = target: T1, NET (Homo sapiens, UniProt P23975); assay: hNET neurotransmitter uptake assay (3H-NE); format: cell-based; details: norepinephrine reuptake inhibition, HEK-293 hNET cells, 3H-NE (no asterisk); read-out: NET pIC50 (converted)
Method: (§1) Neurotransmitter uptake assays were used to measure inhibition of ^3H-serotonin (^3H-5-HT), ^3H-norepinephrine (^3H-NE), and ^3H-dopamine (^3H-DA) uptake into cells expressing the respective transporter (hSERT, hNET or hDAT) in order to determine the pIC50 values of test compounds at the transporters.
(§2) HEK-293 derived cell lines stably-transfected with hSERT, hNET, or hDAT, respectively, were grown in DMEM medium supplemented with 10% dialyzed FBS (for hSERT) or FBS (for hNET and hDAT), 100 μg/ml penicillin, 100 μg/ml streptomycin, 2 mM L-glutamine and 250 μg/ml of the aminoglycoside antibiotic G418 (for hSERT and hNET) or 800 ug/ml (for hDAT), in a 5% CO2 humidified incubator at 37° C. When cultures reached 80% confluence, the cells were washed thoroughly in PBS (without Ca^2+ and Mg^2+) and lifted with 5 mM EDTA in PBS. Cells were harvested by centrifugation at 1100 rpm for 5 minutes, washed once by resuspension in PBS, then centrifuged. The supernatant was discarded and the cell pellet resuspended, by gentle trituration, in room temperature Krebs-Ringer bicarbonate buffer containing HEPES (10 mM), CaCl2 (2.2 mM), ascorbic acid (200 μM) and pargyline (200 μM), pH 7.4. The final concentration of cells in the cell suspension was 7.5×10^4 cells/ml, 1.25×10^5 cells/ml, and 5.0×10^4 cells/ml for SERT, NET, and DAT cell lines, respectively.
(§3) Neurotransmitter uptake assays were performed in a 96-well assay plate in a total volume of 400 μl assay buffer (Krebs-Ringer bicarbonate buffer containing HEPES (10 mM), CaCl2 (2.2 mM), ascorbic acid (200 μM) and pargyline (200 μM), pH 7.4) with 1.5×10^4 and 2.5×10^4 cells, for SERT, NET, and DAT, respectively. […] Stock solutions (10 mM in DMSO) of test compound were prepared and serial dilutions prepared using 50 mM Tris-HCl, 120 mM NaCl, 5 mM KCl, pH 7.4, 0.1% BSA, 400 μM ascorbic acid. Test compounds were incubated for 30 minutes at 37° C. with the respective cells, prior to addition of radiolabeled neurotransmitter, ^3H-5-HT (20 nM final concentration), ^3H-NE (50 nM final concentration) or ^3H-DA (100 nM final concentration). Non-specific neurotransmitter uptake was determined in the presence of 2.5 μM duloxetine, 2.5 μM desipramine, or 10 uM GBR-12909 (each in Dilution Buffer) for the hSERT, hNET, or hDAT assays, respectively.
(§4) Following a 10 minute incubation, at 37° C., with radioligand, the cells were harvested by rapid filtration over a 96-well UniFilter GF/B plate, pretreated with 1% BSA, and washed 6 times with 650 μl wash buffer (ice cold PBS). Plates were dried overnight at 37° C., ˜45 μl of MicroScint™-20 (Perkin Elmer) added and incorporated radioactivity quantitated via liquid scintillation spectroscopy Inhibition curves were analyzed using GraphPad Prism Software package (GraphPad Software, Inc., San Diego, Calif.). IC50 values were generated from concentration response curves using the Sigmoidal Dose Response (variable slope) algorithm in Prism GraphPad.

SERT [2] = target: T2, SERT (Homo sapiens, UniProt P31645); assay: hSERT neurotransmitter uptake assay (3H-5-HT); format: cell-based; details: serotonin reuptake inhibition, HEK-293 hSERT cells, 3H-5-HT (no asterisk); read-out: SERT pIC50 (converted)
Method: as §1, §2, §3, §4

NET [3] = target: T1, NET; assay: hNET membrane radioligand binding assay (3H-nisoxetine); details: hNET membranes (HEK-293), 1.0 nM 3H-nisoxetine; read-out: NET pKi (converted)
Method: (§5) Membrane radioligand binding assays were used to measure inhibition of labeled ligand (^3H-citalopram or ^3H-nisoxetine or ^3H-WIN35428) binding to membranes prepared from cells expressing the respective human recombinant transporter (hSERT or hNET or hDAT) in order to determine the pKi values of test compounds at the transporters.
(§6) Recombinant human embryonic kidney (HEK-293) derived cell lines stably transfected with hSERT or hNET, respectively, were grown in DMEM medium supplemented with 10% dialyzed FBS (for hSERT) or FBS (for hNET), 100 μg/ml penicillin, 100 μg/ml streptomycin, 2 mM L-glutamine and 250 μg/ml of the aminoglycoside antibiotic G418, in a 5% CO2 humidified incubator at 37° C. When cultures reached 80% confluence, the cells were washed thoroughly in PBS (without Ca^2+ and Mg^2+) and lifted with 5 mM EDTA in PBS. Cells were pelleted by centrifugation, resuspended in lysis buffer (10 mM Tris-HCl, pH7.5 containing 1 mM EDTA), homogenized, pelleted by centrifugation, then resuspended in 50 mM Tris-HCl, pH 7.5 and 10% sucrose at 4° C. Protein concentration of the membrane suspension was determined using a Bio-Rad Bradford Protein Assay kit. Membranes were snap frozen and stored at −80° C. Chinese hamster ovary membranes expressing hDAT (CHO-DAT) were purchased from PerkinElmer and stored at −80° C.
(§7) Binding assays were performed in a 96-well assay plate in a total volume of 200 μl assay buffer (50 mM Tris-HCl, 120 mM NaCl, 5 mM KCl, pH 7.4) with 0.5, 1, and 3 μg membrane protein, for SERT, NET and DAT, respectively.
(§8) Stock solutions (10 mM in DMSO) of test compound were prepared and serial dilutions made using Dilution Buffer (50 mM Tris-HCl, 120 mM NaCl, 5 mM KCl, pH 7.4, 0.1% BSA, 400 μM ascorbic acid). Non-specific radioligand binding was determined in the presence of 1 μM duloxetine, 1 μM desipramine or 10 μM GBR12909 (each in Dilution Buffer) for the hSERT, hNET or hDAT assays, respectively.
(§9) Following a 60 minute incubation at 22° C. (or a period sufficient to reach equilibrium), the membranes were harvested by rapid filtration over a 96-well UniFilter GF/B plate, pretreated with 0.3% polyethyleneimine, and washed 6 times with […] (50 mM Tris-HCl, 0.9% NaCl, pH 7.5 at 4° C.). Plates were dried overnight at room temperature, approximately […] of MicroScint™-20 (Perkin Elmer) added and bound radioactivity quantitated via liquid scintillation spectroscopy. Inhibition curves and saturation isotherms were analyzed using GraphPad Prism Software package (GraphPad Software, Inc., San Diego, Calif.). IC50 values were generated from concentration response curves using the Sigmoidal Dose Response (variable slope) algorithm in Prism GraphPad. Kd and Bmax values for the radioligand were generated from saturation isotherms using the Saturation Binding Global Fit algorithm in Prism GraphPad. pKi (negative decadic logarithm of Ki) values for test compounds were calculated from the best-fit IC50 values, and the Kd value of the radioligand, using the Cheng-Prusoff equation (Cheng & Prusoff (1973) Biochem. Pharmacol. 22(23):3099-3108): Ki=IC50/(1+[L]/Kd), where [L]=concentration radioligand.

SERT [4] = target: T2, SERT; assay: hSERT membrane radioligand binding assay (3H-citalopram); details: hSERT membranes (HEK-293), 1.0 nM 3H-citalopram; read-out: SERT pKi (converted)
Method: as §5, §6, §7, §8, §9

T1 sequence (P23975 whole entry): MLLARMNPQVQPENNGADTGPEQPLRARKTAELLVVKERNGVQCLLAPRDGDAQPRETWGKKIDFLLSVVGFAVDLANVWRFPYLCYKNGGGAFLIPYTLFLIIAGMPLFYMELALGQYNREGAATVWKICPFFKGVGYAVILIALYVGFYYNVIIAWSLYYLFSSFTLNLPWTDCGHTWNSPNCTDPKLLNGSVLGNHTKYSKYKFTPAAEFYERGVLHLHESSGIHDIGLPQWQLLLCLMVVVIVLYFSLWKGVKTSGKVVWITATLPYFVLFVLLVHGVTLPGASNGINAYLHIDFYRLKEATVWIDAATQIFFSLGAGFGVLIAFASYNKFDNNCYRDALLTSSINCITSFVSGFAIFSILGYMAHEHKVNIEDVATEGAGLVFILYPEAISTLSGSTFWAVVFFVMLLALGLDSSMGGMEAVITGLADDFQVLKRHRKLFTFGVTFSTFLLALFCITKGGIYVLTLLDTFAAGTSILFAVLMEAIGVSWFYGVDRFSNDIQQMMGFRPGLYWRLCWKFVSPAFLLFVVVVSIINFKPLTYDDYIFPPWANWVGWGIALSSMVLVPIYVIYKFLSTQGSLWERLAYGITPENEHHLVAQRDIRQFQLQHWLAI
T2 sequence (P31645 whole entry): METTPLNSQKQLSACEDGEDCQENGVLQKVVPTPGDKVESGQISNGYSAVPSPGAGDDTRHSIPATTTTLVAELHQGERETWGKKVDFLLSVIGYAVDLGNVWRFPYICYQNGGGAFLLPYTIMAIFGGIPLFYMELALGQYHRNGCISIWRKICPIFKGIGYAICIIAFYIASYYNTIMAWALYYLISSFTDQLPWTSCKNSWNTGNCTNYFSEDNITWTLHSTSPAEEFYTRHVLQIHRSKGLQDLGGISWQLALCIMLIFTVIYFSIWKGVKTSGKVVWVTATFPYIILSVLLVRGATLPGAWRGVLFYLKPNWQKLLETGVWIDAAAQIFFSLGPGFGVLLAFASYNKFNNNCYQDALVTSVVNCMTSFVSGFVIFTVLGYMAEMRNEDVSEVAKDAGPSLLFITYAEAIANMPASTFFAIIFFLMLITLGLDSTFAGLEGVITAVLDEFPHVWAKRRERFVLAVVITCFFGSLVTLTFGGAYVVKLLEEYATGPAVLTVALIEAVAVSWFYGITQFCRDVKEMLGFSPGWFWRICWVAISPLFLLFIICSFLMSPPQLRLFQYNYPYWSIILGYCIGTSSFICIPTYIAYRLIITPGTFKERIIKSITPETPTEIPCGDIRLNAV

Row | SMILES | IC50 (NET [1]) | IC50 (SERT [2]) | Ki (NET [3]) | Ki (SERT [4])
1 | COCC(Oc1cccc(Cl)c1C(F)(F)F)C1CCNC1 (centres unmarked) [Example 4-18, 3-[1-(3-Chloro-2-trifluoromethylphenoxy)-2-methoxyethyl]pyrrolidine] | ≤ 10 nM | ≤ 100 nM | ≤ 10 nM | ≤ 10 nM
2 | COC[C@@H](Oc1cccc(Cl)c1C(F)(F)F)[C@H]1CCNC1 [Example 4-20, (S)-3-[(S)-1-(3-Chloro-2-trifluoromethylphenoxy)-2-methoxyethyl]pyrrolidine] | ≤ 10 nM | ≤ 100 nM | ≤ 10 nM | ≤ 10 nM
3 | COC[C@H](Oc1cccc(Cl)c1C(F)(F)F)[C@H]1CCNC1 [Example 4-21, (S)-3-[(R)-1-(3-Chloro-2-trifluoromethylphenoxy)-2-methoxyethyl]pyrrolidine] | ≤ 10 nM | ≤ 100 nM | ≤ 10 nM | ≤ 10 nM
4 | COC[C@@H](Oc1ccc(Cl)cc1Cl)[C@H]1CCNC1 [Example 4-23, (S)-3-[(S)-1-(2,4-Dichlorophenoxy)-2-methoxyethyl]pyrrolidine] | ≤ 100 nM | ≤ 10 nM | ≤ 100 nM | ≤ 10 nM
5 | COC[C@H](Oc1ccc(Cl)cc1C)[C@H]1CCNC1 [Example 4-25, (S)-3-[(R)-1-(4-Chloro-2-methylphenoxy)-2-methoxyethyl]pyrrolidine] | ≤ 10 nM | ≤ 10 nM | ≤ 10 nM | ≤ 10 nM
6 | COCC(Oc1ccc(Cl)cc1C)C1CCNC1 (centres unmarked) [Example 4-26, 3-[1-(4-Chloro-2-methylphenoxy)-2-methoxyethyl]pyrrolidine] | ≤ 10 nM | ≤ 100 nM | ≤ 10 nM | ≤ 10 nM
7 | CCOC[C@@H](Oc1cccc(Cl)c1Cl)[C@H]1CCNC1 [Example 7-8, (S)-3-[(S)-1-(2,3-Dichlorophenoxy)-2-ethoxyethyl]pyrrolidine] | ≤ 10 nM | ≤ 10 nM | ≤ 10 nM | ≤ 10 nM
8 | Clc1cccc(O[C@@H](C2CCOCC2)[C@@H]2CCNC2)c1Cl [Example 12, (R)-3-[(S)-(2,3-Dichlorophenoxy)(tetrahydropyran-4-yl)-methyl]pyrrolidine] | ≤ 10 nM | ≤ 10 nM | ≤ 10 nM | ≤ 10 nM
9 | Clc1ccccc1O[C@@H](C1CCOCC1)[C@H]1CCNC1 [Example 13-1, (S)-3-[(S)-(2-Chlorophenoxy)(tetrahydropyran-4-yl)methyl]pyrrolidine] | ≤ 10 nM | ≤ 1000 nM | ≤ 10 nM | ≤ 100 nM
10 | Clc1ccccc1O[C@@H](C1CCOCC1)[C@@H]1CCNC1 [Example 13-3, (R)-3-[(S)-(2-Chlorophenoxy)(tetrahydropyran-4-yl)methyl]pyrrolidine] | ≤ 10 nM | ≤ 100 nM | ≤ 10 nM | ≤ 10 nM
11 | Clc1ccccc1O[C@H](C1CCOCC1)[C@H]1CCNC1 [Example 13-4, (S)-3-[(R)-(2-Chlorophenoxy)(tetrahydropyran-4-yl)methyl]pyrrolidine] | ≤ 100 nM | ≤ 100 nM | ≤ 100 nM | ≤ 10 nM
12 | Clc1ccc(O[C@H](C2CCOCC2)[C@@H]2CCNC2)cc1 [Example 13-9, (R)-3-[(R)-(4-Chlorophenoxy)(tetrahydropyran-4-yl)methyl]pyrrolidine] | ≤ 10 nM | ≤ 10 nM | ≤ 10 nM | ≤ 10 nM
13 | Clc1cccc(O[C@H](C2CCOCC2)[C@H]2CCNC2)c1Cl [Example 13-12, (S)-3-[(R)-(2,3-Dichlorophenoxy)(tetrahydropyran-4-yl)methyl]pyrrolidine] | ≤ 10 nM | ≤ 10 nM | ≤ 10 nM | ≤ 10 nM
14 | Clc1cccc(O[C@H](C2CCOCC2)[C@@H]2CCNC2)c1Cl [Example 13-13, (R)-3-[(R)-(2,3-Dichlorophenoxy)(tetrahydropyran-4-yl)methyl]pyrrolidine] | ≤ 10 nM | ≤ 100 nM | ≤ 10 nM | ≤ 10 nM
15 | Fc1cccc(O[C@@H](C2CCOCC2)[C@H]2CCNC2)c1Cl [Example 13-14, (S)-3-[(S)-(2-Chloro-3-fluorophenoxy)(tetrahydropyran-4-yl)methyl]pyrrolidine] | ≤ 10 nM | ≤ 100 nM | ≤ 10 nM | ≤ 10 nM
16 | Fc1cccc(O[C@H](C2CCOCC2)[C@H]2CCNC2)c1Cl [Example 13-15, (S)-3-[(R)-(2-Chloro-3-fluorophenoxy)(tetrahydropyran-4-yl)methyl]pyrrolidine] | ≤ 10 nM | ≤ 10 nM | ≤ 10 nM | ≤ 10 nM
17 | Fc1cccc(O[C@H](C2CCOCC2)[C@@H]2CCNC2)c1Cl [Example 13-16, (R)-3-[(R)-(2-Chloro-3-fluorophenoxy)(tetrahydropyran-4-yl)methyl]pyrrolidine] | ≤ 10 nM | ≤ 100 nM | ≤ 10 nM | ≤ 10 nM
